# US5166214A, “Use of imidazoles for the treatment of atherosclerosis” (priority 1990, dated 1992)
# System: murine macrophage-like cell line J774.A1
# Assay: Inhibition of cholesterol esterification in mammalian cells (macrophage assay)
# Format: cell-based
# Details: J774.A1 macrophages loaded with ac-LDL, 14C-oleic acid; read-out: Cholesterol Esterification IC50
# Experimental: B. Assay of the Inhibition of Cholesterol Esterification in Mammalian Cells
# The esterification of cholesterol was determined in the murine macrophage-like cell line J774.A1. Cells were seeded in 35 mm wells at a density of 300,000 cells per well in 2 mls of Dulbecco's Eagle Medium (DMEM) supplemented with 10% fetal bovine serum (FBS). Cells were incubated at 37° C. in an atmosphere of 5% CO2 and 93% humidity. After 24 hours the media was changed to 0.68 mls 10% FBS-DMEM containing 34 μg of acetylated human low density lipoprotein (ac-LDL) to increase the intracellular concentration of cholesterol and promote esterification. At 41 hours, various inhibitors were added to the cells in DMSO (10 μl/ml maximum). At 43 hours, the cells were pulsed with 0.1 mM ^14 C-oleic acid (10,000 dpm/nmol) complexed with BSA (bovine serum albumin) to follow cholesterol ester formation. The experiment was terminated at 45 hours by washing the monolayers 3 times with 3 ml of Tris-buffered saline at 4° C. The lipids were extracted by incubating the monolayers with 1.5 ml of hexane:isopropanol (3:2, v/v) for 30 min. under gentle agitation. During this period, 10,000 dpm 3H-cholesteryl linoleate and 10 μg of cholesteryl oleate were added as an internal standard and carrier respectively. The organic solvent was removed and the cells were washed with an additional 1.0 ml of hexane: isopropanol which was combined with the original extract. The cells were allowed to dry overnight, digested with 1.5 ml of 0.2N sodium hydroxide for 1 hour and an aliquot of the solubilized protein used for protein determination using the Lowry method. The organic extract was taken to dryness, the residue resuspended in 100 μl of chloroform and the lipids separated on silica gel impregnated glass fiber plates using a hexane:diethylether:acetic acid (170:30:1, v/v/v) solvent system. Individual lipids were visualized with iodine and the cholesteryl ester spot cut out and transferred to scintillation vials to determine the amount of radioactivity. The conversion of oleic acid to cholesteryl ester in the control averaged 0.54 […] and was increased upon the addition of ac-LDL to about 10.69±0.69 […]. […] It should be noted that many of the intermediates had inhibitory activity in the in vitro ACAT assay and in the macrophage assay.
row,Compound,IC50
1,CCCCCCCN(CCCCCSc1nc(-c2ccccc2)c(-c2ccccc2)[nH]1)C(=O)c1ccc(F)cc1F [Example 345],300 nM
2,"CCCCCCCN(CCCCCS(=O)(=O)c1nc(-c2ccccc2)c(-c2ccccc2)[nH]1)C(=O)Nc1ccc(F)cc1F [Example 281, N'-(2,4-difluorophenyl)-N-[5-[(4,5-diphenyl-1H-imidazol-2-yl)sulfonyl]pentyl]-N-heptylurea]",3500 nM
3,"CCCCCCCN(CCCCCSc1nc(-c2ccccc2)c(-c2ccccc2)[nH]1)C(=O)NCCC [Example 8, N-[5-(4,5-diphenyl-1H-imidazol-2-ylthio)pentyl]-N-heptyl-N'-propylurea]",500 nM
4,"CCCCCCCN(CCCCCSc1nc(-c2ccccc2)c(-c2ccccc2)[nH]1)C(=O)Cc1ccc(F)cc1F [Example 340, 2,4-difluoro-N-[(5-(4,5-diphenyl-1H-imidazol-2-ylthio)pentyl)]-N-heptylbenzeneacetamide]",200 nM
5,CCCCCCCN(CCCCCSc1nc(-c2ccccc2)c(-c2ccccc2)[nH]1)C(=O)c1ccccc1 [Example 346],500 nM
6,"CCCCCCCN(CCCCCSc1nc(-c2ccccc2)c(-c2ccccc2)n1C)C(=O)Nc1ccc(F)cc1F [Example 6, N'-(2.4-difluorophenyl)-N-heptyl-N-[5-(1-methyl-4,5-diphenyl-1H-imidazol-2-ylthio)pentyl]urea]",3800 nM
7,"CCCCCCCN(CCCCCNc1nc(-c2ccccc2)c(-c2ccccc2)[nH]1)C(=O)Nc1ccc(F)cc1F [Example 338, N'-(2,4-difluorophenyl)-N-[5-(4,5-diphenyl-1H-imidazol-2-ylamino)pentyl]-N-heptylurea]",3400 nM
8,"CCCCCCCN(CCCCCSc1nc(-c2ccccc2)c(-c2ccccc2)[nH]1)C(=S)Nc1c(F)cc(F)cc1F [Example 298, N-[5-(4,5-diphenyl-1H-imidazol-2-ylthio)pentyl]-N-heptyl-N'-(2,4,6-trifluorophenyl)thiourea]",2500 nM
9,"CCCCCCCN(CCCCCSc1nc(-c2ccccc2)c(-c2ccccc2)[nH]1)C(=O)Oc1ccccc1 [Example 402, Phenyl [5-(4,5-diphenyl-1H-imidazol-2-ylthio)pentyl]heptylcarbamate]",400 nM
10,"CCCCCCCN(CCCCCSc1nc(-c2ccccc2)c(-c2ccccc2)[nH]1)C(=N)Nc1ccccc1 [Example 499, N-[5-(4,5-diphenyl-1H-imidazol-2-ylthio)-pentyl]-N-heptyl-N'-phenylguanidine]",3400 nM
11,CCCCCCCN(CCCCCSc1nc(-c2ccccc2)c(-c2ccccc2)[nH]1)C(=O)CC1CCCCC1 [Example 344],400 nM
12,"CCCCCCCN(CCCCCSc1nc(-c2ccccc2)c(-c2ccccc2)[nH]1)C(=O)NC1CCCCC1 [Example 94, N'-cyclohexyl-N-[5-(4,5-diphenyl-1H-imidazol-2-ylthio)pentyl]-N-heptylurea]",100 nM
13,CCCCCCCCNC(=O)N(CCCCCSc1nc(-c2ccccc2)c(-c2ccccc2)[nH]1)c1c(F)cc(F)cc1F [Example 208],2800 nM
14,"CCCCCCCCNC(=O)N(CCCCCSc1nc(-c2ccccc2)c(-c2ccccc2)[nH]1)c1ccc(F)cc1F [Example 206, N-(2,4-difluorophenyl)-N-[5-(4,5-diphenyl-1H-imidazol-2-ylthio)pentyl]-N'-octylurea]",400 nM
15,"CCCCCCCN(CCCCCCCCSc1nc(-c2ccccc2)c(-c2ccccc2)[nH]1)C(=O)Nc1ccc(F)cc1F [Example 3, N'-(2,4-difluorophenyl)-N-[8-(4,5-diphenyl-1H-imidazol-2-ylthio)octyl]-N-heptylurea]",17500 nM
16,"CCCCCCCN(CCCCCSc1nc(-c2ccccc2)c(-c2ccccc2)[nH]1)C(=S)Nc1ccc(F)cc1F [Example 276, N'-(2,4-difluorophenyl)-N-[5-(4,5-diphenyl-1H-imidazol-2-ylthio)pentyl]-N-heptylthiourea]",6100 nM
17,CCCCCCCN(CCCCCSc1ncc(-c2ccccc2)n1-c1ccccc1)C(=O)Nc1ccc(F)cc1F [Example 260],6000 nM
18,"CCCCCCCN(CCCCCSc1nc(-c2ccccc2)c(-c2ccccc2)[nH]1)C(=O)Cc1ccc(-c2ccccc2)cc1 [Example 343, N-[5-(4,5-diphenyl-1H-imidazol-2-ylthio)pentyl]-N-heptyl[1,1'-biphenyl]-4-acetamide]",1100 nM
19,CCCCCCCN(CCCCCSc1nc(-c2ccccc2)cn1-c1ccccc1)C(=O)Nc1ccc(F)cc1F [Example 259],900 nM
20,"CCCCCCCN(CCCCCCc1nc(-c2ccccc2)c(-c2ccccc2)[nH]1)C(=O)Nc1ccc(F)cc1F [Example 339, N'-(2,4-difluorophenyl)-N-[6-(4,5-diphenyl-1H-imidazol-2-yl)hexyl]-N-heptylurea]",4400 nM
21,"CCCCCCCN(CCSc1nc(-c2ccccc2)c(-c2ccccc2)[nH]1)C(=O)Nc1ccc(F)cc1F [Example 189, N'-(2,4-difluorophenyl)-N-[2-(4,5-diphenyl-1H-imidazol-2-ylthio)ethyl]-N-heptylurea]",2200 nM
22,"CCCCCCCN(CCCCCSc1nc(-c2ccccc2)c(-c2ccccc2)[nH]1)C(=O)NC(C)C [Example 105, N-[5-(4,5-diphenyl-1H-imidazol-2-ylthio)pentyl]-N-heptyl-N'-(1-methylethyl)urea]",300 nM
23,"CCCCCCCN(CCCCCSc1nc(-c2ccccc2)c(-c2ccccc2)[nH]1)C(=O)OC1CCCCC1 [Example 401, cyclohexyl [5-(4,5-diphenyl-1H-imidazol-2-ylthio)pentyl]heptylcarbamate]",400 nM
24,"CCCCCCCN(CCCCCSc1nc(-c2ccccc2)c[nH]1)C(=O)Nc1ccc(F)cc1F [Example 160, N'-(2,4-difluorophenyl)-N-heptyl-N-[5-(4-phenyl-1H-imidazol-2-ylthio)pentyl]urea]",1600 nM
25,CCCN(CCCCCSc1nc(-c2ccccc2)c(-c2ccccc2)[nH]1)C(=O)Nc1ccc(F)cc1F [Example 190],2200 nM
26,CCCCCCCN(CCCCCSc1nc(-c2ccc(C(C)(C)C)cc2)c(-c2ccc(C(C)(C)C)cc2)[nH]1)C(=O)Nc1ccc(F)cc1F [Example 203],50000 nM
27,"CCCCCCCN(CCCCCSc1nc(-c2ccccc2)c(-c2ccccc2)[nH]1)C(=O)Nc1c(F)cc(F)cc1F [Example 71, N-[5-(4,5-diphenyl-1H-imidazol-2-ylthio)pentyl]-N-heptyl-N'-(2,4,6-trifluorophenyl)urea]",1900 nM
28,"CCCCCCCN(CCCCC[S+]([O-])c1nc(-c2ccccc2)c(-c2ccccc2)[nH]1)C(=O)Nc1ccc(F)cc1F (centres unmarked) [Example 278, N'-(2,4-difluorophenyl)-N-[5-(4,5-diphenyl-1H-imidazol-2-ylsulfinyl)pentyl]-N-heptylurea]",1200 nM
29,"CCCCCCCN(CCCCCSc1nc(-c2ccccc2)c(-c2ccccc2)[nH]1)C(=O)Nc1ccc(-c2ccccc2)cc1 [Example 192, N'-[(1,1'-biphenyl)-4-yl]-N-[5-(4,5-diphenyl-1H-imidazol-2-ylthio)pentyl]-N-heptylurea]",2000 nM
